Experimental findings from patent US9409866B2, “Pyridine-2-amides useful as CB2 agonists” (Hoffmann-La Roche Inc., priority 2012, dated 2016) are described below.

Read-outs that look alike come from different tables or passages of the source.

One assay deals with human CB2 receptors (Homo sapiens (Human), UniProt P34972). Nature of the assay: functional cAMP assay, CHO cells expressing human CB2. It is filed as cell-based. The essentials:
(§1)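 CHO cells expressing human CB1 or CB2 were preincubated 30 min at 30 °C in Krebs Ringer bicarbonate with 1 mM IBMX, then exposed to compound 30 min at 30 °C. cAMP quantified by TR-FRET competition (Alexa700 antibody/ruthenium-cAMP) against a 10 μM–0.13 nM standard curve; EC50 derived.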
(In general: cAMP levels reflect the balance of adenylyl cyclase and phosphodiesterase activity.)

Another assay concerns the target human CB1 receptors (Homo sapiens (Human), UniProt P21554). Nature of the assay: functional cAMP assay, CHO cells expressing human CB1. It counts as cell-based. The procedure, abridged: as §1
Setting [1] is: functional cAMP assay, CHO cells expressing human CB1; read-out: Human CB1 EC50.
Where [2] appears, read: Human CB1 EC50 (uM), functional cAMP assay, CHO cells expressing human CB1.

Chain of human CB2 receptors (P34972 whole entry): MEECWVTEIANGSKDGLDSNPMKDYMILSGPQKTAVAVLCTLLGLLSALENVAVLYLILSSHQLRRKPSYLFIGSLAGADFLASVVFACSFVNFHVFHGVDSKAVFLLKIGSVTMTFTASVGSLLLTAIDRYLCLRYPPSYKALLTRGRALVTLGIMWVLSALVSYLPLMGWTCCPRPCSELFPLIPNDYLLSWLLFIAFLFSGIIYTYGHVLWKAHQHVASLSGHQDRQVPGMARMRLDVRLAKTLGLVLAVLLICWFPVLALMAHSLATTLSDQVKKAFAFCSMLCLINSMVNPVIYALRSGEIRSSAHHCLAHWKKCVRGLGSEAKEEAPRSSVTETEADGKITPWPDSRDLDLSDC
Chain of human CB1 receptors (P21554 whole entry): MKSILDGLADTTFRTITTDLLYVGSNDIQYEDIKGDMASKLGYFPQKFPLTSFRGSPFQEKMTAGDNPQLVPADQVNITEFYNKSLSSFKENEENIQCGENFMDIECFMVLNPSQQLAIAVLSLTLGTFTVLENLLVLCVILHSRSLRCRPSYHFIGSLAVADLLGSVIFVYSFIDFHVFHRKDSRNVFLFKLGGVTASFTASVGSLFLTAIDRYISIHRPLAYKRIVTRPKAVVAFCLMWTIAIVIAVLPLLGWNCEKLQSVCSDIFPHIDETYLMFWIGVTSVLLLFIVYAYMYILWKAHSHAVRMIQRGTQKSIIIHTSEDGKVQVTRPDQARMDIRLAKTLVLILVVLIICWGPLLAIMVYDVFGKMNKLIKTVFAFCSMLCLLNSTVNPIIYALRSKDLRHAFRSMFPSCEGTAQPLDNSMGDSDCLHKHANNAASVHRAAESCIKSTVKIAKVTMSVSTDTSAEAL

Broadly, the EC50 is the concentration giving half of the maximal effect. As to `CC(CC(N)=O)(NC(=O)c1cc(OCC(F)(F)F)c(C2(F)CCC2)cn1)C1CC1` (stereo not drawn) [Example 300, N-(4-amino-2-cyclopropyl-4-oxobutan-2-yl)-5-(1-fluorocyclobutyl)-4-(2,2,2-trifluoroethoxy)picolinamide], the EC50 at human CB2 receptors (read-out: Human CB2 EC50) is 0.0067 µM; on human CB1 receptors (setting [1]) it was above 10 µM.
For `C[C@H](Oc1cc(C(=O)NC2(CC(N)=O)CS(=O)(=O)C2)ncc1C1CC1)C(F)(F)F` [Example 266, N-[3-(2-amino-2-oxoethyl)-1,1-dioxothietan-3-yl]-5-cyclopropyl-4-[(2S)-1,1,1-trifluoropropan-2-yl]oxypyridine-2-carboxamide], in that order: 0.0016 µM and above 10 µM.
For `O=C(NCC1(O)CCCCC1)c1cc(OCC2CC2)c(Cl)cn1` [Example 5, 5-Chloro-4-cyclopropylmethoxy-pyridine-2-carboxylic acid (1-hydroxy-cyclohexylmethyl)-amide], in that order: 0.107 µM and above 10 µM.
With `Cc1nc([C@@](C)(NC(=O)c2cc(O[C@@H](C)C(F)(F)F)c(C3(F)COC3)cn2)C2CC2)no1` [Example 168, N-[1-cyclopropyl-1-(5-methyl-1,2,4-oxadiazol-3-yl)ethyl]-5-(3-fluorooxetan-3-yl)-4-[(2S)-1,1,1-trifluoropropan-2-yl]oxypyridine-2-carboxamide], the figures for the 50% effective concentration (EC50) on human CB2 receptors (read-out: Human CB2 EC50) and on human CB1 receptors (setting [1]) were 0.281 µM and above 10 µM, respectively.
Consider `CNC(=O)CC1(NC(=O)c2cc(OCC(F)(F)F)c(C3CC3)cn2)CS(=O)(=O)C1` [Example 282, 5-cyclopropyl-N-[3-[2-(methylamino)-2-oxoethyl]-1,1-dioxothietan-3-yl]-4-(2,2,2-trifluoroethoxy)pyridine-2-carboxamide], for which the results for the 50% effective concentration (EC50) at human CB2 receptors (read-out: Human CB2 EC50) and at human CB1 receptors (setting [1]) were 0.659 µM and above 10 µM, respectively.
For the compound `NC(=O)[C@H]1CC(F)(F)CN1C(=O)c1cc(OCC(F)(F)F)c(C2CC2)cn1` [Example 122, (2R)-1-[5-cyclopropyl-4-(2,2,2-trifluoroethoxy)pyridine-2-carbonyl]-4,4-difluoropyrrolidine-2-carboxamide], the EC50 was 0.399 µM on human CB2 receptors (read-out: Human CB2 EC50) and above 10 µM on human CB1 receptors (setting [1]).
For `NC(=O)[C@H](CC1CC1)NC(=O)c1cc(OCC2CC2)c(Cl)cn1` [Example 4, 5-Chloro-4-cyclopropylmethoxy-pyridine-2-carboxylic acid ((S)-1-carbamoyl-2-cyclopropyl-ethyl)-amide], in that order: 0.115 µM and above 10 µM.
On the same counts, the results for `Cc1nnc(C(C)(CC2COC2)NC(=O)c2cc(O[C@@H](C)C(F)(F)F)c(C3CC3)cn2)o1` (stereo partly drawn) [Example 190, 5-cyclopropyl-N-[2-(5-methyl-1,3,4-oxadiazol-2-yl)-1-(oxetan-3-yl)propan-2-yl]-4-[(2S)-1,1,1-trifluoropropan-2-yl]oxypyridine-2-carboxamide] are 0.559 µM and above 10 µM.
Consider `CC(CC(N)=O)(NC(=O)c1cc(OCC(F)(F)F)c(N2CC(F)(F)C2)cn1)C1CC1` (single isomer, unassigned) [Example 275, N-[4-amino-2-cyclopropyl-4-oxobutan-2-yl]-5-(3,3-difluoroazetidin-1-yl)-4-(2,2,2-trifluoroethoxy)pyridine-2-carboxamide], for which the EC50 is 0.0227 µM on human CB2 receptors (Human CB2 EC50 (uM)) and above 10 µM at human CB1 receptors (setting [2]).
Turning to `Cc1nc(C(C)(CC2CC2)NC(=O)c2cc(OCC(F)(F)F)c(C3CCC3)cn2)no1` (single isomer, unassigned) [Example 117, 5-cyclobutyl-N-[1-cyclopropyl-2-(5-methyl-1,2,4-oxadiazol-3-yl)propan-2-yl]-4-(2,2,2-trifluoroethoxy)pyridine-2-carboxamide], the EC50 at human CB2 receptors (Human CB2 EC50 (uM)) is 0.0024 µM; on human CB1 receptors (read-out: Human CB1 EC50; functional cAMP assay, CHO cells expressing human CB1), above 10 µM.
In the case of `Cc1nc(C(C)(CS(C)(=O)=O)NC(=O)c2cc(OCCF)c(C3CC3)cn2)no1` (single isomer, unassigned) [Example 279, 5-cyclopropyl-4-(2-fluoroethoxy)-N-[2-(5-methyl-1,2,4-oxadiazol-3-yl)-1-methylsulfonylpropan-2-yl]pyridine-2-carboxamide], the values for the EC50 at human CB2 receptors (Human CB2 EC50 (uM)) and on human CB1 receptors (setting [2]) were 0.173 µM and above 10 µM, respectively.
Regarding `CC(C)[C@H](CO)NC(=O)c1cc(OCC2CC2)c(Cl)cn1` [Example 11, 5-Chloro-4-cyclopropylmethoxy-pyridine-2-carboxylic acid ((R)-1-hydroxymethyl-2-methyl-propyl)-amide], the values for the EC50 at human CB2 receptors (read-out: Human CB2 EC50) and at human CB1 receptors (setting [1]) were 0.0554 µM and above 10 µM, respectively.
Consider `Cc1nc(C(C)(CS(C)(=O)=O)NC(=O)c2cc(OCC(F)F)c(C3CC3)cn2)no1` (single isomer, unassigned) [Example 283, 5-cyclopropyl-4-(2,2-difluoroethoxy)-N-(2-(5-methyl-1,2,4-oxadiazol-3-yl)-1-(methylsulfonyl)propan-2-yl)picolinamide], for which the EC50 on human CB2 receptors (Human CB2 EC50 (uM)) is 0.0533 µM; at human CB1 receptors (setting [2]) it was above 10 µM.
Consider `C[C@H](Oc1cc(C(=O)NC(c2nnn(C)n2)C(C)(C)C)ncc1C1CC1)C(F)(F)F` (stereo partly drawn) [Example 216, 5-cyclopropyl-N-[2,2-dimethyl-1-(2-methyltetrazol-5-yl)propyl]-4-[(2S)-1,1,1-trifluoropropan-2-yl]oxypyridine-2-carboxamide], for which the results for the EC50 at human CB2 receptors (read-out: Human CB2 EC50) and on human CB1 receptors (setting [1]) were 0.0047 µM and above 10 µM, respectively.
For `CC(C)(C)C(NC(=O)c1cc(OCC(F)(F)F)c(C2CC2)cn1)C(=O)N1CCC12COC2` (stereo not drawn) [Example 198, 5-cyclopropyl-N-[3,3-dimethyl-1-(6-oxa-1-azaspiro[3.3]heptan-1-yl)-1-oxobutan-2-yl]-4-(2,2,2-trifluoroethoxy)pyridine-2-carboxamide], in that order: 0.0364 µM and above 10 µM.
On the same counts, the results for `C[C@@H](Oc1cc(C(=O)NC2(CC(N)=O)COC2)ncc1C1CC1)C(F)(F)F` [Example 63, 5-Cyclopropyl-4-((R)-2,2,2-trifluoro-1-methyl-ethoxy)-pyridine-2-carboxylic acid (3-carbamoylmethyl-oxetan-3-yl)-amide] are 0.283 µM and above 10 µM.
As for `Cc1nnc(C(C)(CC2CC2)NC(=O)c2cc(OCC(F)(F)F)c(C3CC3)cn2)o1` (single isomer, unassigned) [Example 184, 5-cyclopropyl-N-[1-cyclopropyl-2-(5-methyl-1,3,4-oxadiazol-2-yl)propan-2-yl]-4-(2,2,2-trifluoroethoxy)pyridine-2-carboxamide], the 50% effective concentration (EC50) at human CB2 receptors (Human CB2 EC50 (uM)) was 0.0856 µM; on human CB1 receptors (setting [2]), above 10 µM.
On to `Cc1csc(C2(NC(=O)c3cc(OCC(F)(F)F)c(C4CC4)cn3)CCOCC2)n1` [Example 152, 5-cyclopropyl-N-[4-(4-methyl-1,3-thiazol-2-yl)oxan-4-yl]-4-(2,2,2-trifluoroethoxy)pyridine-2-carboxamide], for which the EC50 on human CB2 receptors (read-out: Human CB2 EC50) was 0.185 µM; on human CB1 receptors (setting [1]) it was above 10 µM.
On the same counts, the results for `Cc1nc(C(C)(COCc2ccccc2)NC(=O)c2cc(OCC(F)(F)F)c(C3CC3)cn2)no1` (stereo not drawn) [Example 112, 5-cyclopropyl-N-[2-(5-methyl-1,2,4-oxadiazol-3-yl)-1-phenylmethoxypropan-2-yl]-4-(2,2,2-trifluoroethoxy)pyridine-2-carboxamide] are 0.0436 µM and above 10 µM.
On the same counts, the results for `C[C@H](Oc1cc(C(=O)NC(C(=O)N2CCC23COC3)C(C)(C)C)ncc1C1CC1)C(F)(F)F` (stereo partly drawn) [Example 204, 5-cyclopropyl-N-[3,3-dimethyl-1-(6-oxa-1-azaspiro[3.3]heptan-1-yl)-1-oxobutan-2-yl]-4-[(2S)-1,1,1-trifluoropropan-2-yl]oxypyridine-2-carboxamide] are 0.0646 µM and above 10 µM.
On the same counts, the results for `CC[C@](C)(CO)NC(=O)c1cc(OCC2CC2)c(Cl)cn1` [Example 30, (−)-5-Chloro-4-cyclopropylmethoxy-pyridine-2-carboxylic acid (1-hydroxymethyl-1-methyl-propyl)-amide] are 0.0192 µM and above 10 µM.
For the compound `CC(C)[C@](C)(CO)NC(=O)c1cc(OCC2CCC2)c(Cl)cn1` [Example 12, 5-Chloro-4-cyclobutylmethoxy-pyridine-2-carboxylic acid ((R)-1-hydroxymethyl-1,2-dimethyl-propyl)-amide], the results for the EC50 at human CB2 receptors (read-out: Human CB2 EC50) and at human CB1 receptors (setting [1]) were 0.0092 µM and above 10 µM, respectively.
In the case of `CNC(=O)CC1(NC(=O)c2cc(OCC(F)(F)F)c(C3CC3)cn2)COC1` [Example 231, 5-cyclopropyl-N-[3-[2-(methylamino)-2-oxoethyl]oxetan-3-yl]-4-(2,2,2-trifluoroethoxy)pyridine-2-carboxamide], the EC50 on human CB2 receptors (read-out: Human CB2 EC50) was 0.547 µM; on human CB1 receptors (setting [1]) it was above 10 µM.
Regarding `CC(CC(N)=O)(NC(=O)c1cc(OCC(F)(F)F)c(C2CC2)cn1)C1CC1` (single isomer, unassigned) [Example 243, N-[4-amino-2-cyclopropyl-4-oxobutan-2-yl]-5-cyclopropyl-4-(2,2,2-trifluoroethoxy)pyridine-2-carboxamide], the values for the EC50 at human CB2 receptors (Human CB2 EC50 (uM)) and on human CB1 receptors (setting [2]) were 0.0005 µM and above 10 µM, respectively.
On to `CCC[C@@](C)(CO)NC(=O)c1cc(OCC2CC2)c(Cl)cn1` [Example 37, (−)-5-Chloro-4-cyclopropylmethoxy-pyridine-2-carboxylic acid (1-hydroxymethyl-1-methyl-butyl)-amide], for which the EC50 at human CB2 receptors (read-out: Human CB2 EC50) is 0.0167 µM; on human CB1 receptors (setting [1]), above 10 µM.
On the same counts, the results for `CC(C)C[C@@H](CO)NC(=O)c1cc(OCC2CC2)c(Cl)cn1` [Example 7, 5-Chloro-4-cyclopropylmethoxy-pyridine-2-carboxylic acid ((S)-1-hydroxymethyl-3-methyl-butyl)-amide] are 0.0523 µM and above 10 µM.
For the compound `CNC(=O)[C@H](C)C(C)(C)NC(=O)c1cc(OCC2CC2)c(Cl)cn1` [Example 35, (+)-5-Chloro-4-cyclopropylmethoxy-pyridine-2-carboxylic acid (1,1-dimethyl-2-methylcarbamoyl-propyl)-amide], the EC50 is 0.143 µM at human CB2 receptors (read-out: Human CB2 EC50) and above 10 µM at human CB1 receptors (setting [1]).
